Experimental data from patent publication US20030186464A1, “Surface plasmon resonance methods” (priority 2002, published 2003).
Where two headings read alike, the source gives them in different places.

Columns and labels:
immobilized IL-2 = target: T1, immobilized IL-2 (Homo sapiens, UniProt P60568); assay: Double ligand SPR on immobilized interleukin-2 (Examples 9-11); format: binding
T1 construct: made in house; host or cells: E. coli
Description: A CM5 sensor chip (Biacore-BR-1000-14) is docked in a Biacore 2000 SPR device and normalized using a standard Biacore protocol with 70% glycerol. The chip is next equilibrated in PBS for approximately 1 hr at a 20 μL/min flow rate. The dextran surface of the chip is activated through an NHS/EDC coupling. This coupling is done using an amine coupling kit (Biacore—BR-100-50) containing N-hydroxysuccinimide (NHS 11.5 mg/mL) and N-ethyl-N′-(3-dimethylaminopropyl) carbodiimide hydrochloride (EDC 75 mg/mL). First, the two reagents are mixed in a 1:1 ratio and then 35 μL of the mixture are injected at 5 μL/min. The chip is activated one flow cell at a time, and that flow cell is subsequently labeled with protein.
IL-2 is expressed in E. coli cells and purified using standard procedures. Protein is then concentrated to 100 μM and the buffer is exchanged to 100 mM MES pH 5.75 (Nap-5 column, Pierce). A sensorgram is then run over the activated flow cell at 2,L/min of PBS. The IL-2 solution is then injected at 2 μL/min for 10 min. After injection the change in RUs is measured by marking the RUs at t=0 and t=final and subtracting. This gives the total RU change, which is related to the total mass of protein successfully coupled to the CM5 surface. The total mass will later be used to determine stoichiometry of binding. This procedure is then repeated with another arbitrary protein to create a measure for nonspecific binding. The arbitrary protein is immobilized on an adjacent cell. […] The sensorgram is then altered to flow across all four cells on the CM5 chip at 5 μL/min PBS. A solution of 1 M ethanolamine hydrochloride-NaOH pH 8.5 (Amine coupling kit, Biacore-BR-100-50) is injected at 5 μL/min for 7 min. Proteins are immobilized at densities of 100-160 fmol/mm^2. The chip is equilibrated overnight in PBS+0.05% azide+2% DMSO at 20 μL/min.
In this experiment, variable concentrations of a compound are tested at a constant concentration of another compound. The compound held constant is 2c, for example (structure shown in Example 2). To determine appropriate constant concentrations for 2c, a compound titration is first performed. Dilution series of the compounds are typically performed to produce seven solutions having final compound concentrations of 30 mM, 10 mM, 3.3 mM, 1.1 mM, 0.37 mM, 0.12 mM, and 0.041 mM; an eighth solution is a DMSO-only baseline. The compounds are then diluted into PBS+0.05% azide to final concentrations of 300 μM, 100 μM, 33 μM, 11 μM, 3.7 μM, 1.2 μM, 0.41 μM. The compound solutions are injected from lowest concentration to highest at 40 μL/min for 1 min. The SPR software method includes a 1 min wash before injection, the injection and then a 3 min wash after the injection.
These dilution series are analyzed by BIAevaluation software version 3.0. Sensorgrams are plotted for compound binding to the IL-2 labeled cell of the chip. The sensorgrams are modified by subtracting the sensorgrams for the appropriate compound dilutions over cell 1 (a blank cell). This subtraction step removes any RU changes that might occur due to non-specific interactions between the compound and the chip itself or refractive changes in the buffer. Finally, the eight sensorgrams produced from the compound dilution series are zeroed at the average of their starting RUs. Then the sensorgram produced by injecting DMSO only is subtracted to reveal the final sensorgrams used to determine relative binding.
To determine KdSPR for the compound, the compound concentration is plotted on the X-axis, while the fraction bound at the plateau of the injection is plotted on the Y-axis. The curve is then analyzed via non-linear regression analysis (Kaleidagraph, Synergy Software). […] The concentration chosen is where the RUs remain constant at the top of the binding curve and thus the IL-2:2c ratio is 1. For 2c, this concentration is 100 μM.
A second compound is then run, this time in both the presence and absence of 2c. […]

[1] = target: T2, human interleukin-1 receptor type 1 (Homo sapiens, UniProt P14778); assay: SPR inhibition of binding of soluble IL-1 R to an immobilized peptide ligand (Examples 12-13); conditions: for IC50: inhibition of binding of IL-1 R to the immobilized peptide […]
T2 construct: soluble human II-1 R was allowed to flow over the surface; made in house; host or cells: baculovirus-infected TN-5B1-4 insect cells (High Five)
T2 sequence (P14778 18-336 limits assumed): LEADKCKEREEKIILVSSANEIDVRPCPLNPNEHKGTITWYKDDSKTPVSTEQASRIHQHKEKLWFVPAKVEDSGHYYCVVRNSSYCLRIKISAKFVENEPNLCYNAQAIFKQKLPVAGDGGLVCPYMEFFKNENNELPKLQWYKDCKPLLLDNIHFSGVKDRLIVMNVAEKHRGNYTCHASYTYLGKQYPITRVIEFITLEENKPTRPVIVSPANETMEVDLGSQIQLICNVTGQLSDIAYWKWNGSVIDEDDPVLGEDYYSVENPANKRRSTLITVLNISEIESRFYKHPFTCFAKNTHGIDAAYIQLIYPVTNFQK
Description: A CM5 sensor chip (Biacore-BR-1000-14) is docked in a Biacore 2000 SPR device. The chip is then normalized using standard Biacore protocol with 70% glycerol. The chip is next equilibrated in PBS for approximately 1 hr at 20,L/min flow rate. The dextran surface of the chip is activated through an NHS/EDC coupling. This coupling is done using an amine coupling kit (Biacore—BR-100-50) containing N-hydroxysuccinimide (NHS 11.5 mg/mL) and N-ethyl-N′-(3-dimethylaminopropyl) carbodiimide hydrochloride (EDC 75 mg/mL). The two reagents are mixed in a 1:1 ratio and 35 μL of the mixture are injected at 5 μL/min. The activated chip is then modified with a cysteine reactive group, to enable labeling of the CM5 chip with cysteine chemistry. A solution of 100 μM MTSL in PBS is injected at 2 μL/min for 10 min over the activated cell.
A peptide that is a nanomolar inhibitor for the protein of interest was synthesized at Synpep, to include a cysteine residue at the N-terminus. This peptide was brought up to a 100 μM solution in PBS. This solution is then injected over the activated cell at 2 μL/min for 10 min. After injection one measures the change in RUs by marking the RUs at t=0 and t=final and subtracting. This gives the total RU change, which is related to the total mass of peptide successfully coupled to the CM5 surface. The sensorgram is then altered to flow across all four cells on the CM5 chip at 5 μL/min PBS. A solution of 1 M ethanolamine hydrochloride-NaOH pH 8.5 (Amine coupling kit, Biacore—BR-100-50) is injected at […] for 7 min. The peptide is immobilized at a density of 40 fmol/mm^2. The chip is equilibrated overnight in PBS+0.05% azide at 20 μL/min.
IL-1 R is expressed in baculovirus-infected TN-5B1-4 insect cells (High Five) and purified using standard procedures. To determine an appropriate constant concentration of protein to use, a protein titration is first performed. A dilution series of the protein is typically performed to produce seven protein solutions having final concentrations of from 300 nM, 100 nM, 33 nM, 11 nM, 3.7 nM, 1.2 nM, and 0.41 nM in PBS+0.05% azide, and an eighth solution is used as a PBS-only baseline. The protein solutions are injected from lowest concentration to highest at 40 μL/min for 1 min. The SPR software method includes a 1 min wash before injection, the injection and then a 3 min wash after the injection.
These dilutions series are analyzed by BIAevaluation software version 3.0. Sensorgrams are plotted for protein binding to the immobilized peptide cell. The sensorgrams are modified by subtracting the sensorgrams for the appropriate protein dilutions over cell 1 (a blank cell). This subtraction step removes any RU changes that might occur due to nonspecific interactions between the protein and the chip itself or refractive changes in the buffer. Finally, the eight sensorgrams produced from the protein dilution series are zeroed at the average of their starting RUs. Then the sensorgram produced by injecting PBS only is subtracted to reveal the final sensorgrams used to determine relative binding.
To determine KdSPR for the protein, the protein concentration is plotted on the X-axis, while the fraction bound at the plateau of the injection is plotted on the Y-axis. The curve is then analyzed via nonlinear regression analysis (Kaleidagraph, Synergy Software). […] One wants to keep protein constant and non-saturated to be assured of not having an excess of protein in solution. For this protein, 30 nM was chosen. […]

T1 sequence (P60568 21-153): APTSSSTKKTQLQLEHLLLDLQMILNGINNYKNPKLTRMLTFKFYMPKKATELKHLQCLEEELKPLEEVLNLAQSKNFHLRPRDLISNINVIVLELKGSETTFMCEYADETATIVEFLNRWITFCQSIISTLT

COCCNC(=O)[C@@H]1CCCN1C(=O)c1cc2ccccc2s1 [Compound 1]
Kd (immobilized IL-2; FIG. 7 sensorgrams, 0-500 μM of compound over immobilized IL-2, read-out: apparent Kd): ~175 µM | IC50 (immobilized IL-2; constant 50 μM of 2c, immobilized IL-2, FIG. 9, read-out: IC50 inhibiting the binding of 2c): 185 µM | Kd (immobilized IL-2; dose-response plot of FIG. 9, absence of 2c, read-out: Kd for binding IL-2): 210 µM

N=C(N)N[C@@H](C(=O)NCC(=O)N1CCC(c2cc(-c3ccc(O)cc3Cl)[nH]n2)CC1)C1CCCCC1 [Compound 16]
Kd (immobilized IL-2; Example 11, immobilized interleukin-2, read-out: apparent Kd in SPR experiments): 5 µM

COCC(=O)NC1CSc2ccccc2C1=O (stereo not shown) [Compound 20]
Kd,SPR IL-2 (immobilized IL-2; immobilized IL-2, no other compound): Inactive

NC(=O)CC[C@H](NC(=O)[C@H](Cc1ccc(OP(=O)(O)O)cc1)NC(=O)[C@H](Cc1ccc2ccccc2c1)NC(=O)Cc1ccc(O)cc1)C(=O)N1CCN(C(=O)Cc2ccc(O)cc2)CC1 [Compound 21]
IC50 [1]: 10.5 µM

NC(=O)c1cccc(NC(=O)CCC(=O)NCCc2c[nH]c3ccccc23)c1 [Compound 22]
IC50SPR ([1]; inhibition of binding of IL-1 R to the immobilized peptide CETPFTWEESNAYYWQPYALPL): Inactive

NC(=O)c1cccc(NC(=O)CCC(=O)Nc2ccc3[nH]ccc3c2)c1 [Compound 23]
IC50 [1]: 560 µM

NC(=O)Cc1cccc(NC(=O)c2cccc(NC(=O)c3cc4cccc(O)c4cc3O)c2)c1 [Compound 24]
IC50 [1]: 95 µM

NC(=O)Cc1ccc(NC(=O)NCc2ccc(C3=CN=C(N)NC3)cc2)cc1 [Compound 25]
IC50 [1]: 240 µM
